# Experimental data taken from patent US20240358693A1, “METHODS OF TREATING PAIN” (Aisa Pharma, Inc., priority 2023, published 2024).
# Test system: participants with SSc-RP
# Assay: Scleroderma Health Assessment Questionnaire (SHAQ): disability indices and visual analog scales
# Format: in vivo, human
# Conditions: for SHAQ Standard Disability Index: Baseline, Mean / SHAQ Standard Disability Index: Baseline, Median / SHAQ Standard Disability Index: Change from Baseline (Day 12), Mean / SHAQ Standard Disability Index: Change from Baseline (Day 12), Median / SHAQ Standard Disability Index: In-Clinic Visit (Day 12), Mean / SHAQ Standard Disability Index: In-Clinic Visit (Day 12), Median / SHAQ Standard Disability Index: Percent Change from Baseline (Day 12), Mean / SHAQ Standard Disability Index: Percent Change from Baseline (Day 12), Median: PP Population
# Method in brief: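 Participants with SSc-RP completed the SHAQ at screening and each in-clinic visit. Standard and alternative disability indices (eight categories, 0–3; standard adjusts for aids/assistance) plus Raynaud's VAS on interference over the past 7 days. Reported as absolute change from baseline to end of each dosing period.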
# [1] = Pooled Cilnidipine (N = 7), sensitivity analysis, Modified ITT, Part A
# [2] = Pooled Cilnidipine (N = 8), Day 12, PP Population Part A, SSc patients
# [3] = Pooled Cilnidipine (N = 8), PP Population Part A, SSc patients
# [4] = Pooled Cilnidipine (n = 7), mITT population
# [5] = Table C9, Part A, sensitivity analysis, Pooled Cilnidipine 10 mg and Cilnidipine 10 mg + Tadalafil 5 mg
# [6] = Table C9, Part A, sensitivity analysis, Pooled Cilnidipine 20 mg and Cilnidipine 20 mg + Tadalafil 5 mg
# [7] = Table C9, Part A, sensitivity analysis, pooled cilnidipine 10 mg and 20 mg arms (plus tadalafil 5 mg where labelled)
# [8] = Table C10, Part A, sensitivity analysis, Pooled Cilnidipine 10 mg and Cilnidipine 10 mg + Tadalafil 5 mg
# [9] = Table C10, Part A, sensitivity analysis, Pooled Cilnidipine 20 mg and Cilnidipine 20 mg + Tadalafil 5 mg
# [10] = Table C10, Part A, sensitivity analysis, pooled cilnidipine 10 mg and 20 mg arms (plus tadalafil 5 mg where labelled)
smiles,measurement,setting,value
"COCCOC(=O)C1=C(C)NC(C)=C(C(=O)OC/C=C/c2ccccc2)C1c1cccc([N+](=O)[O-])c1 (stereo not drawn) [Cilnidipine, cilnidipine]","SHAQ VAS Breathing Problems: Change from Baseline, Median",[1],0.000
same,"SHAQ VAS Breathing Problems: Day 12, Mean",[1],1.029
same,"SHAQ VAS Breathing Problems: Day 12, Median",[1],0.000
same,"SHAQ VAS Breathing Problems: Percent Change from Baseline, Mean",[1],−8.17%
same,"SHAQ VAS Breathing Problems: Percent Change from Baseline, Median",[1],−41.33%
same,"SHAQ VAS Finger Ulcers: Baseline, Mean",[1],1.171
same,"SHAQ VAS Finger Ulcers: Baseline, Median",[1],0.300
same,"SHAQ VAS Finger Ulcers: Change from Baseline, Mean",[1],−0.643
same,"SHAQ VAS Finger Ulcers: Change from Baseline, Median",[1],0.000
same,"SHAQ VAS Finger Ulcers: Day 12, Mean",[1],0.529
same,"SHAQ VAS Finger Ulcers: Day 12, Median",[1],0.000
same,"SHAQ VAS Finger Ulcers: Percent Change from Baseline, Mean",[1],−17.08%
same,"SHAQ VAS Finger Ulcers: Percent Change from Baseline, Median",[1],−50.82%
same,"SHAQ VAS Intestinal Problems: Baseline, Mean",[1],2.057
same,"SHAQ VAS Intestinal Problems: Baseline, Median",[1],1.000
same,"SHAQ VAS Intestinal Problems: Change from Baseline, Mean",[1],−0.943
same,"SHAQ VAS Intestinal Problems: Change from Baseline, Median",[1],0.000
same,"SHAQ VAS Intestinal Problems: Day 12, Mean",[1],1.114
same,"SHAQ VAS Intestinal Problems: Day 12, Median",[1],0.600
same,"SHAQ VAS Intestinal Problems: Percent Change from Baseline, Mean",[1],−32.42%
same,"SHAQ VAS Intestinal Problems: Percent Change from Baseline, Median",[1],−44.12%
same,"SHAQ VAS Overall Disease Severity: Baseline, Mean",[1],2.700
same,"SHAQ VAS Overall Disease Severity: Baseline, Median",[1],2.900
same,"SHAQ VAS Overall Disease Severity: Change from Baseline, Mean",[1],−1.214
same,"SHAQ VAS Overall Disease Severity: Change from Baseline, Median",[1],−1.500
same,"SHAQ VAS Overall Disease Severity: Day 12, Mean",[1],1.486
same,"SHAQ VAS Overall Disease Severity: Day 12, Median",[1],1.200
same,"SHAQ VAS Overall Disease Severity: Percent Change from Baseline, Mean",[1],−59.80%
same,"SHAQ VAS Overall Disease Severity: Percent Change from Baseline, Median",[1],−55.86%
same,"SHAQ VAS Pain: Baseline, Mean",[1],2.057
same,"SHAQ VAS Pain: Baseline, Median",[1],1.700
same,"SHAQ VAS Pain: Change from Baseline, Mean",[1],−0.529
same,"SHAQ VAS Pain: Change from Baseline, Median",[1],−0.500
same,"SHAQ VAS Pain: Day 12, Mean",[1],1.529
same,"SHAQ VAS Pain: Day 12, Median",[1],1.000
same,"SHAQ VAS Pain: Percent Change from Baseline, Mean",[1],−31.22%
same,"SHAQ VAS Pain: Percent Change from Baseline, Median",[1],−44.98%
same,"SHAQ VAS Raynaud's: Baseline, Mean",[1],1.900
same,"SHAQ VAS Raynaud's: Baseline, Median",[1],1.100
same,"SHAQ VAS Raynaud's: Change from Baseline, Mean",[1],−0.357
same,"SHAQ VAS Raynaud's: Change from Baseline, Median",[1],−0.300
same,"SHAQ VAS Raynaud's: Day 12, Mean",[1],1.543
same,"SHAQ VAS Raynaud's: Day 12, Median",[1],1.100
same,"SHAQ VAS Raynaud's: Percent Change from Baseline, Mean",[1],−18.64%
same,"SHAQ VAS Raynaud's: Percent Change from Baseline, Median",[1],−38.67%
same,"SHAQ Standard Disability Index, Change from Baseline, Mean",[2],−0.031
same,"SHAQ Standard Disability Index, Change from Baseline, Median",[2],0.000
same,"SHAQ Standard Disability Index, Percent Change from Baseline, Mean",[2],−16.00%
same,"SHAQ Standard Disability Index, Percent Change from Baseline, Median",[2],0.00%
same,"SHAQ Standard Disability Index, In-Clinic Visit (Day 12), Mean",[3],0.469
same,"SHAQ Standard Disability Index, In-Clinic Visit (Day 12), Median",[3],0.188
same,SHAQ % change VAS Raynauds,[4],−17%
same,SHAQ % change in Alternative Disability Index,[4],−13%
same,SHAQ % change in Pain,[4],−31%
same,SHAQ % change in Standard Disability Index,[4],−25%
same,SHAQ % change overall SSc Disease Severity,[4],−60%
same,SHAQ % improvement in Breathing (median),[4],41%
same,SHAQ % improvement in VAS Digital Ulcers,[4],19%
same,"SHAQ % Δ from baseline, VAS Breathing, mean",Pooled cilnidipine (4),−8.2%
same,"SHAQ % Δ from baseline, VAS Breathing, median",Pooled cilnidipine (4),−41.3%
same,"SHAQ % Δ from baseline, VAS Finger Ulcers, mean",Pooled cilnidipine (4),−17.1%
same,"SHAQ % Δ from baseline, VAS Finger Ulcers, median",Pooled cilnidipine (4),−50.9%
same,"SHAQ % Δ from baseline, alternative disability, mean",Pooled cilnidipine (4),−12.9%
same,"SHAQ % Δ from baseline, alternative disability, median",Pooled cilnidipine (4),−22.2%
same,"SHAQ % Δ from baseline, standard disability, mean",Pooled cilnidipine (4),−25%
same,"SHAQ % Δ from baseline, standard disability, median",Pooled cilnidipine (4),−16.7%
same,"SHAQ % Δ from baseline, Intestinal Problems, mean",Pooled cilnidipine (5),−32.4%
same,"SHAQ % Δ from baseline, Intestinal Problems, median",Pooled cilnidipine (5),−44.1%
same,"SHAQ % Δ from baseline, VAS Overall Disease Severity, mean",Pooled cilnidipine (6),−59.8%
same,"SHAQ % Δ from baseline, VAS Overall Disease Severity, median",Pooled cilnidipine (6),−55.9%
same,"SHAQ % Δ from baseline, VAS Pain, mean",Pooled cilnidipine (6),−31.2%
same,"SHAQ % Δ from baseline, VAS Pain, median",Pooled cilnidipine (6),−45%
same,"SHAQ % Δ from baseline, VAS Raynaud's, mean",Pooled cilnidipine (6),−18.6%
same,"SHAQ % Δ from baseline, VAS Raynaud's, median",Pooled cilnidipine (6),−38.7%
same,"SHAQ Standard Disability Index: Baseline, Mean",[5],0.597
same,"SHAQ Standard Disability Index: Baseline, Median",[5],0.500
same,"SHAQ Standard Disability Index: Change from Baseline (Day 12), Mean",[5],−0.021
same,"SHAQ Standard Disability Index: Change from Baseline (Day 12), Median",[5],0.000
same,"SHAQ Standard Disability Index: In-Clinic Visit (Day 12), Mean",[5],0.576
same,"SHAQ Standard Disability Index: In-Clinic Visit (Day 12), Median",[5],0.375
same,"SHAQ Standard Disability Index: Percent Change from Baseline (Day 12), Mean",[5],7.50%
same,"SHAQ Standard Disability Index: Percent Change from Baseline (Day 12), Median",[5],0.00%
same,"SHAQ Standard Disability Index: Baseline, Mean",[6],0.563
same,"SHAQ Standard Disability Index: Baseline, Median",[6],0.375
same,"SHAQ Standard Disability Index: Change from Baseline (Day 12), Mean",[6],−0.065
same,"SHAQ Standard Disability Index: Change from Baseline (Day 12), Median",[6],0.000
same,"SHAQ Standard Disability Index: In-Clinic Visit (Day 12), Mean",[6],0.498
same,"SHAQ Standard Disability Index: In-Clinic Visit (Day 12), Median",[6],0.250
same,"SHAQ Standard Disability Index: Percent Change from Baseline (Day 12), Mean",[6],−1.66%
same,"SHAQ Standard Disability Index: Percent Change from Baseline (Day 12), Median",[6],−12.82%
same,"SHAQ Standard Disability Index: Baseline, Mean",[7],0.500
same,"SHAQ Standard Disability Index: Baseline, Median",[7],0.375
same,"SHAQ Standard Disability Index: Change from Baseline (Day 12), Mean",[7],−0.031
same,"SHAQ Standard Disability Index: Change from Baseline (Day 12), Median",[7],0.000
same,"SHAQ Standard Disability Index: In-Clinic Visit (Day 12), Mean",[7],0.469
same,"SHAQ Standard Disability Index: In-Clinic Visit (Day 12), Median",[7],0.188
same,"SHAQ Standard Disability Index: Percent Change from Baseline (Day 12), Mean",[7],−16.00%
same,"SHAQ Standard Disability Index: Percent Change from Baseline (Day 12), Median",[7],0.00%
same,"SHAQ Standard Disability Index: Baseline, Mean",[8],0.597
same,"SHAQ Standard Disability Index: Baseline, Median",[8],0.500
same,"SHAQ Standard Disability Index: Change from Baseline (Day 12), Mean",[8],−0.021
same,"SHAQ Standard Disability Index: Change from Baseline (Day 12), Median",[8],0.000
same,"SHAQ Standard Disability Index: In-Clinic Visit (Day 12), Mean",[8],0.576
same,"SHAQ Standard Disability Index: In-Clinic Visit (Day 12), Median",[8],0.375
same,"SHAQ Standard Disability Index: Percent Change from Baseline (Day 12), Mean",[8],7.50%
same,"SHAQ Standard Disability Index: Percent Change from Baseline (Day 12), Median",[8],0.00%
same,"SHAQ Standard Disability Index: Baseline, Mean",[9],0.563
same,"SHAQ Standard Disability Index: Baseline, Median",[9],0.375
same,"SHAQ Standard Disability Index: Change from Baseline (Day 12), Mean",[9],−0.065
same,"SHAQ Standard Disability Index: Change from Baseline (Day 12), Median",[9],0.000
same,"SHAQ Standard Disability Index: In-Clinic Visit (Day 12), Mean",[9],0.498
same,"SHAQ Standard Disability Index: In-Clinic Visit (Day 12), Median",[9],0.250
same,"SHAQ Standard Disability Index: Percent Change from Baseline (Day 12), Mean",[9],−1.66%
same,"SHAQ Standard Disability Index: Percent Change from Baseline (Day 12), Median",[9],−12.82%
same,"SHAQ Standard Disability Index: Baseline, Mean",[10],0.500
same,"SHAQ Standard Disability Index: Baseline, Median",[10],0.375
same,"SHAQ Standard Disability Index: Change from Baseline (Day 12), Mean",[10],−0.031
same,"SHAQ Standard Disability Index: Change from Baseline (Day 12), Median",[10],0.000
same,"SHAQ Standard Disability Index: In-Clinic Visit (Day 12), Mean",[10],0.469
same,"SHAQ Standard Disability Index: In-Clinic Visit (Day 12), Median",[10],0.188
same,"SHAQ Standard Disability Index: Percent Change from Baseline (Day 12), Mean",[10],−16.00%
same,"SHAQ Standard Disability Index: Percent Change from Baseline (Day 12), Median",[10],0.00%
same,mean decrease in patient reported disease severity on the SHAQ,"pooled cilnidipine patients, 10 mg or 20 mg (n=7)",60%
